Laboratory results taken from patent US11697650B2, “Compounds having tetrahydroindolizine-1-carboxamide as BCL-2 inhibitors” (Eil Therapeutics, Inc., priority 2021, dated 2023).
Blank lines part the entries; values can stand above or below the molecule they belong to.

Legend:
RS4-11 cells = assay: Cell viability assay (CellTiter-Glo), RS4-11; format: cell-based; conditions: Homo sapiens, 72 h, 3 days, read-out: RS4-11 (CC50 code)
Experimental: (§1) Culture medium for HEK293—DMEM (PanEco, Cat #C420) was used. RPMI-1640 (PanEco, Cat #C363) was used for the rest of the cell lines.
(§2) Compounds were prepared as 200× stocks with serial dilution in 100% DMSO with a final concentration of 1×.
(§3) […] were dispersed in 40 μL aliquots in 384-well plates at a concentration of 2000 cells per well for HEK293 and at a concentration of 4000 cells per well for the rest of the cell lines using a robotic station Biomek (Beckman). Before adding compounds, the cells were incubated at 37° C. (HEK293 were incubated for a day before adding compounds).
(§4) A dilution plate was prepared by pouring 78 μL of the appropriate culture medium using a robotic station Biomek (Beckman). Sequentially, using a robotic station, 2 μL of substances were taken and added to 78 μL of culture medium (dilution of compounds 40×). 10 μL aliquots were taken and added to the plates of the cells (dilution of compounds 5×). The plates were incubated for 3 days at a temperature 37° C. After 3 days, 10 μL of CellTiter-Glo (Promega) was added to the cells and the luminescence was measured.

MOLT-4 cells = assay: Cell viability assay (CellTiter-Glo), MOLT-4; format: cell-based; conditions: Homo sapiens, 72 h, 3 days, read-out: MOLT-4 (CC50 code)
Experimental: as §1, §2, §3, §4

[1] = Cell viability assay (CellTiter-Glo), HEK293; format: cell-based; conditions: human, HEK293 cells, read-out: HEK293 (CC50 code)
Experimental: as §1, §2, §3, §4

[2] = system: caspase-3 and -7 activities in RS4-11 cells; assay: Caspase-3/7 activation (Caspase-Glo 3/7) in RS4-11 cells; format: cell-based; conditions: Homo sapiens, 3.5 h incubation, read-out: Cas-3/7 (EC50 code)
Experimental: The Caspase-Glo 3/7 Assay is homogeneous, luminescent assay that measures caspase-3 and -7 activities. The assay provides a luminogenic caspase-3/7 substrate, which contains the tetrapeptide sequence DEVD, in a reagent optimized for caspase activity.
Incubate RS4-11 cells with varying concentrations of test compounds for 3.5 h in a humidified incubator at 37° C. and 5% CO2 and 30 min at r.t. Add 15 μl Caspase-Glo reagent to each well and incubate the plate for 30 min at r.t. Read on ClarioStar Plus instrument.
Promega Caspase-Glo (Promega, #8212); Frozen RS4-11 cells; 384-well white plate (Corning, #3570).
ClarioStar Plus; Biomek FX for liquid handling (Beckman Coulter).

BCL-2 = BCL-2 (Homo sapiens (Human), UniProt P10415); assay: BCL-2 TR-FRET Assay (primary PPI inhibition); format: binding; conditions: 60 min incubation; read-out: BCL2 (IC50 code, BCL-2 TR-FRET)
Chain of BCL-2 (P10415 whole entry): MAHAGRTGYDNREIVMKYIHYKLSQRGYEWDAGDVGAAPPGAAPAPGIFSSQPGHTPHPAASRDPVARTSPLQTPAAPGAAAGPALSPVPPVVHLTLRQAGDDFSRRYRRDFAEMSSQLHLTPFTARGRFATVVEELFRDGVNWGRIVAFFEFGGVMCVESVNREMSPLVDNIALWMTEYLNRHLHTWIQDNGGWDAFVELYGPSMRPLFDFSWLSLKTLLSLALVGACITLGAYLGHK
Experimental: BCL-2 TR-FRET Assay (BPS Bioscience, #50222)
(§5) The following assay concentrations and times were used: 3 ng BCL-2, 5 μl of 1:100 anti-His Tb-labeled donor, 5 μl of 1:100 Dye-labeled acceptor, 5 μl of 1:40 BCL-2 Peptide Ligand, and 2 ul of test compound, with 60 min incubation time. The results of the assay were read using a Clariostar (BMG Labtech) plate reader with the following parameters: TR FRET, 340ex/620 and 665em; 60 μsec Delay; and 500 μsec integration.

BCL-XL = BCL-XL (Homo sapiens (Human), UniProt Q07817); assay: BCL-XL TR-FRET Assay (primary PPI inhibition); format: binding; conditions: 60 min incubation; read-out: BCLxL (IC50 code, BCL-XL TR-FRET)
Chain of BCL-XL (Q07817 whole entry): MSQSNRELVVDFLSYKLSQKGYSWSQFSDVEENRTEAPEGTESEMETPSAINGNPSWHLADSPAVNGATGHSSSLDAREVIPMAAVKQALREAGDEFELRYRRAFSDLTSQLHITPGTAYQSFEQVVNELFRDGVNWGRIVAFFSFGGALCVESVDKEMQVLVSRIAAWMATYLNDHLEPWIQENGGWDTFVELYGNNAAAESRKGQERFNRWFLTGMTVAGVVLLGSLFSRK
Experimental: BCL-XL TR-FRET Assay (BPS Bioscience, #50223)
as §5, with “used: 10.5” for “used: 3”, “ng BCL-XL,” for “ng BCL-2,”, “of 1:80 BCL-XL” for “of 1:40 BCL-2”, “2 μl” for “2 ul”

EC50 [2]: ≤ 100 nM
Structure (SMILES): O=C(c1cc(-c2cc3c(cc2C(=O)N2Cc4ccccc4C[C@H]2CN2CCOCC2)OCO3)n2c1CCCC2)N(Cc1ccccc1F)c1ccc(O)cc1 [Compound 11, N-(2-fluorobenzyl)-N-(4-hydroxyphenyl)-3-(6-{[(3S)-3-(morpholin-4-ylmethyl)-3,4-dihydroisoquinolin-2(1H)-yl]carbonyl}-1,3-benzodioxol-5-yl)-5,6,7,8-tetrahydroindolizine-1-carboxamide]
CC50 (RS4-11 cells): ≤ 100 nM
CC50 (MOLT-4 cells): > 10000 nM
CC50 at 3 days [1]: 10000 to 25000 nM

Structure (SMILES): CCOc1ccc(-c2nc(CN(C(=O)c3cc(-c4cc5c(cc4C(=O)N4Cc6ccccc6C[C@H]4CN4CCOCC4)OCO5)n4c3CCCC4)c3ccc(O)cc3)c(C)o2)cc1 [Compound 27, N-{[2-(4-ethoxyphenyl)-5-methyl-1,3-oxazol-4-yl]methyl}-N-(4-hydroxyphenyl)-3-(6-{[(3S)-3-(morpholin-4-ylmethyl)-3,4-dihydroisoquinolin-2(1H)-yl]carbonyl}-1,3-benzodioxol-5-yl)-5,6,7,8-tetrahydroindolizine-1-carboxamide]
IC50 (BCL-2): > 50 nM
IC50 (BCL-XL): > 4000 nM

Structure (SMILES): O=C(c1cc(-c2cc3c(cc2C(=O)N2Cc4ccccc4C[C@H]2CN2CCOCC2)OCO3)n2c1CCCC2)N(Cc1c(F)cccc1C(F)(F)F)c1ccc(O)cc1 [Compound 22, N-[2-fluoro-6-(trifluoromethyl)benzyl]-N-(4-hydroxyphenyl)-3-(6-{[(3S)-3-(morpholin-4-ylmethyl)-3,4-dihydroisoquinolin-2(1H)-yl]carbonyl}-1,3-benzodioxol-5-yl)-5,6,7,8-tetrahydroindolizine-1-carboxamide]
IC50 (BCL-2): > 50 nM
IC50 (BCL-XL): > 4000 nM

Structure (SMILES): N#Cc1ccccc1CN(C(=O)c1cc(-c2cc3c(cc2C(=O)N2Cc4ccccc4C[C@H]2CN2CCOCC2)OCO3)n2c1CCCC2)c1ccc(O)cc1 [Compound 47, N-[(2-Cyanophenyl)methyl]-N-(4-hydroxyphenyl)-3-[6-[(3S)-3-(morpholinomethyl)-3,4-dihydro-1H-isoquinoline-2-carbonyl]-1,3-benzodioxol-5-yl]-5,6,7,8-tetrahydroindolizine-1-carboxamide]
IC50 (BCL-2): > 50 nM

Structure (SMILES): CC(C)(C)OC(=O)c1cccc(CN(C(=O)c2cc(-c3cc4c(cc3C(=O)N3Cc5ccccc5C[C@H]3CN3CCOCC3)OCO4)n3c2CCCC3)c2ccc(O)cc2)c1 [Compound 46, tert-Butyl 3-[(4-hydroxy-N-[3-[6-[(3S)-3-(morpholinomethyl)-3,4-dihydro-1H-isoquinoline-2-carbonyl]-1,3-benzodioxol-5-yl]-5,6,7,8-tetrahydroindolizine-1-carbonyl]anilino)methyl]benzoate]
IC50 (BCL-2): 10 to 50 nM

IC50 (BCL-2): 5 to 10 nM
IC50 (BCL-XL): 2000 to 4000 nM
Structure (SMILES): CS(=O)(=O)NC(=O)c1cccc(CN(C(=O)c2cc(-c3cc4c(cc3C(=O)N3Cc5ccccc5C[C@H]3CN3CCOCC3)OCO4)n3c2CCCC3)c2ccc(O)cc2)c1 [Compound 43, N-(4-hydroxyphenyl)-N-{3-[(methylsulfonyl)carbamoyl]benzyl}-3-(6-{[(3S)-3-(morpholin-4-ylmethyl)-3,4-dihydroisoquinolin-2(1H)-yl]carbonyl}-1,3-benzodioxol-5-yl)-5,6,7,8-tetrahydroindolizine-1-carboxamide]

Structure (SMILES): Cc1ccc(C(F)(F)F)cc1CN(C(=O)c1cc(-c2cc3c(cc2C(=O)N2Cc4ccccc4C[C@H]2CN2CCOCC2)OCO3)n2c1CCCC2)c1ccc(O)cc1 [Compound 38, N-(4-hydroxyphenyl)-N-[2-methyl-5-(trifluoromethyl)benzyl]-3-(6-{[(3S)-3-(morpholin-4-ylmethyl)-3,4-dihydroisoquinolin-2(1H)-yl]carbonyl}-1,3-benzodioxol-5-yl)-5,6,7,8-tetrahydroindolizine-1-carboxamide]
IC50 (BCL-2): 10 to 50 nM

Structure (SMILES): O=C(c1cc(-c2cc3c(cc2C(=O)N2Cc4ccccc4C[C@H]2CN2CCOCC2)OCO3)n2c1CCCC2)N(Cc1ccc(OC(F)(F)F)cc1)c1ccc(O)cc1 [Compound 26, N-(4-hydroxyphenyl)-3-(6-{[(3S)-3-(morpholin-4-ylmethyl)-3,4-dihydroisoquinolin-2(1H)-yl]carbonyl}-1,3-benzodioxol-5-yl)-N-[4-(trifluoromethoxy)benzyl]-5,6,7,8-tetrahydroindolizine-1-carboxamide]
IC50 (BCL-2): > 50 nM
IC50 (BCL-XL): > 4000 nM

Structure (SMILES): Cc1cccc(F)c1CN(C(=O)c1cc(-c2cc3c(cc2C(=O)N2Cc4ccccc4C[C@H]2CN2CCOCC2)OCO3)n2c1CCCC2)c1ccc(O)cc1 [Compound 32, N-(2-fluoro-6-methylbenzyl)-N-(4-hydroxyphenyl)-3-(6-{[(3S)-3-(morpholin-4-ylmethyl)-3,4-dihydroisoquinolin-2(1H)-yl]carbonyl}-1,3-benzodioxol-5-yl)-5,6,7,8-tetrahydroindolizine-1-carboxamide]
IC50 (BCL-2): 10 to 50 nM

Structure (SMILES): Cc1cccc(C)c1CN(C(=O)c1cc(-c2cc3c(cc2C(=O)N2Cc4ccccc4C[C@H]2CN2CCOCC2)OCO3)n2c1CCCC2)c1ccc(O)cc1 [Compound 30, N-(2,6-dimethylbenzyl)-N-(4-hydroxyphenyl)-3-(6-{[(3S)-3-(morpholin-4-ylmethyl)-3,4-dihydroisoquinolin-2(1H)-yl]carbonyl}-1,3-benzodioxol-5-yl)-5,6,7,8-tetrahydroindolizine-1-carboxamide]
IC50 (BCL-2): > 50 nM

Structure (SMILES): O=C(c1cc(-c2cc3c(cc2C(=O)N2Cc4ccccc4C[C@H]2CN2CCOCC2)OCO3)n2c1CCCC2)N(Cc1ccc(F)cc1)c1ccc(O)cc1 [Compound 17, N-(4-fluorobenzyl)-N-(4-hydroxyphenyl)-3-(6-{[(3S)-3-(morpholin-4-ylmethyl)-3,4-dihydroisoquinolin-2(1H)-yl]carbonyl}-1,3-benzodioxol-5-yl)-5,6,7,8-tetrahydroindolizine-1-carboxamide]
IC50 (BCL-2): 10 to 50 nM
CC50 (RS4-11 cells): > 200 nM
CC50 (MOLT-4 cells): > 10000 nM
CC50 at 3 days [1]: > 25000 nM
EC50 [2]: > 250 nM

Structure (SMILES): O=C(c1cc(-c2cc3c(cc2C(=O)N2Cc4ccccc4C[C@H]2CN2CCOCC2)OCO3)n2c1CCCC2)N(Cc1cccnc1)c1ccc(O)cc1 [Compound 39, N-(4-hydroxyphenyl)-3-(6-{[(3S)-3-(morpholin-4-ylmethyl)-3,4-dihydroisoquinolin-2(1H)-yl]carbonyl}-1,3-benzodioxol-5-yl)-N-(pyridin-3-ylmethyl)-5,6,7,8-tetrahydroindolizine-1-carboxamide]
IC50 (BCL-2): 5 to 10 nM
IC50 (BCL-XL): 2000 to 4000 nM
CC50 (RS4-11 cells): > 200 nM
CC50 (MOLT-4 cells): ≤ 2000 nM
CC50 at 3 days [1]: 10000 to 25000 nM

IC50 (BCL-2): > 50 nM
IC50 (BCL-XL): > 4000 nM
Structure (SMILES): O=C(c1cc(-c2cc3c(cc2C(=O)N2Cc4ccccc4C[C@H]2CN2CCOCC2)OCO3)n2c1CCCC2)N(Cc1cccc([N+](=O)[O-])c1)c1ccc(O)cc1 [Compound 49, N-(4-Hydroxyphenyl)-3-[6-[(3S)-3-(morpholinomethyl)-3,4-dihydro-1H-isoquinoline-2-carbonyl]-1,3-benzodioxol-5-yl]-N-[(3-nitrophenyl)methyl]-5,6,7,8-tetrahydroindolizine-1-carboxamide]
CC50 (RS4-11 cells): > 200 nM
CC50 (MOLT-4 cells): > 10000 nM
CC50 at 3 days [1]: > 25000 nM

Structure (SMILES): O=C(O)c1cccc(CN(C(=O)c2cc(-c3cc4c(cc3C(=O)N3Cc5ccccc5C[C@H]3CN3CCOCC3)OCO4)n3c2CCCC3)c2ccc(O)cc2)c1 [Compound 45, 3-[(4-Hydroxy-N-[3-[6-[(3S)-3-(morpholinomethyl)-3,4-dihydro-1H-isoquinoline-2-carbonyl]-1,3-benzodioxol-5-yl]-5,6,7,8-tetrahydroindolizine-1-carbonyl]anilino)methyl]benzoic Acid]
IC50 (BCL-2): 10 to 50 nM
IC50 (BCL-XL): 2000 to 4000 nM
CC50 (RS4-11 cells): > 200 nM
CC50 (MOLT-4 cells): > 10000 nM
CC50 at 3 days [1]: > 25000 nM
